Values after ≈ are worked out from the molar mass of the structure shown. Like-named read-outs stand apart in the source and are kept apart here.

The text below walks through data of patent publication US4552879A, “Benzoheterocyclic compounds and pharmaceutical composition thereof” (Otsuka Pharmaceutical Co., Ltd., priority 1980, dated 1985).

What all share (experiment): Minimum inhibitory concentration, serial dilution method on agar plate
Format in all cases: cell-based

For assay [1], the system named is Staphyloccus aureus Smith.
In assay [2] the test system is Micrococcus lysodeikticus IAM 1313. As to conditions: Micrococcus luteus.
Assay [3] relates to Bacteroides thetaiotaomicron WAL 2926.
Assay [4] has as its system Salmonella typhi 0-901 (NCTC 8393). To be noted: Salmonella enterica.
For assay [5], the system named is Staphylococcus aureus IFO 3761.
For another assay, the system named is Bacillus cereus IFO 3446.
Assay [6] has as its system Staphylococcus aureus E-46.
The test system of assay [7] is Micrococcus flavus ATCC 10240a. To be noted: ATCC10240A.

As to `CC1CCc2c(N3CCC(O)CC3)c(F)cc3c(=O)c(C(=O)O)cn1c23` (stereo not shown) [Compound 1, 9-Fluoro-8-(4-hydroxy-1-piperidyl)-5-methyl-6,7-dihydro-1-oxo-1H,5H-benzo[ij]quinolizine-2-carboxylic acid], the figures for the “Minimum Inhibitory Concentration” value (in assay [1] (1×10^6 cells/ml); in the assay with Bacillus cereus IFO 3446 (1×10^6 cells/ml); in assay [6] (1×10^6 cells/ml)) were 0.05 µg/mL, 0.10 µg/mL and 0.05 µg/mL, respectively. Further, the MIC in assay [1] (1×10^8 cells/ml) stood at 0.05 µg/mL (≈ 0.139 µM); in assay [2] (IAM1313, 1×10^6 cells/ml) it was 0.1 µg/mL (≈ 0.277 µM); in assay [2] (IAM1313, 1×10^8 cells/ml), 0.2 µg/mL (≈ 0.555 µM); in assay [3] (WAL2926, 1×10^6 cells/ml) it was 1.56 µg/mL (≈ 4.33 µM); in assay [3] (WAL2926, 1×10^8 cells/ml), 6.25 µg/mL (≈ 17.3 µM); in assay [4] (read-out: Minimum Inhibitory Concentration, 1×10^6 cells/ml) it was 0.05 µg/mL (≈ 0.139 µM). Also, the MIC in assay [4] (read-out: Minimum Inhibitory Concentration, 1×10^8 cells/ml) amounted to 0.1 µg/mL (≈ 0.277 µM); in assay [5] (IFO3761, 1×10^6 cells/ml), 0.024 µg/mL (≈ 0.0666 µM); in assay [5] (IFO3761, 1×10^8 cells/ml), 0.1 µg/mL (≈ 0.277 µM); with Bacillus cereus IFO 3446 (Bacillus cereus, IFO3446, 1×10^8 cells/ml), 0.1 µg/mL (≈ 0.277 µM); in assay [6] (Staphylococcus aureus, E46, 1×10^8 cells/ml), 0.05 µg/mL (≈ 0.139 µM); in assay [7] (1×10^6 cells/ml), 0.2 µg/mL (≈ 0.555 µM). The molecule further yielded an MIC in assay [7] (1×10^8 cells/ml) of 0.39 µg/mL (≈ 1.08 µM).
